Entries after “also recorded” stand apart in the source; their conditions may differ. Structures can show the parent of a compound that is named as a salt.
What was measured:
[1] = system: NIH mice; assay: test of stomach channel, oral administration; settings: 212 mg/kg oral, fasted 24 hours, stomach dissected after 48 hours
Experimental: NIH mice are divided into two groups randomly. […] Dissect stomach after 48 hours. Use 10% methylene oxide. Cut the stomach along the curve of stomach, and calculate the percentage of an ulcer canker.

[2] = system: female Kunming mouse; assay: analgesia, mice heating plate method; type: in vivo; settings: for pain record on hot plate (55±0.5° C.): 240 mg/kg
Experimental: Pick the female Kunming mouse, each having the weight between 20 to 22 grams. At first, test their sensitive towards pain. Put the mouse on the hot plate with the temperature of 55±0.5° C., and calculate how much pain does the mouse has by determining how many times they lick their back leg. Eliminate the mice seem to like to jump and the mice has no respond for 30 seconds. Pick a total of 60 mice having sensitive to pain and divide them into 5 groups randomly. […] The dosage of biphenyl acetic ammonia butantriol salt is divided into low, medium, and high dosage, correspondingly to 4, 12, 36 mg/kg, and normal dosage ⅓, 1, 3 respectively. And there is a positive contrast group. […] On the other hand, the saline is injected into the vein in the contrast group. Use epilation to remove the hair of the back leg of the mouse. Record the painful of every mouse before giving drug, and record the painful after giving drug 1 hour. After the mouse licks its foot, remove the hot plate immediately. Do the same record again at the second and third hour after giving drug. Do the t inspect, and judge its effects on easing pain.

[3] = system: NIH mice; assay: twist reaction caused by glacial acetic acid; settings: 3-48 mg/kg
Experimental: After testing, the 110 NIH mice are divided into eleven groups randomly, which means each group has 10 mice, and each of the mice has a weight between 15 and 17 grams. The numbers and dosage of the biphenyl acetic ammonia butantriol slat are 1, 2, 3, 4, 5 and 3, 6, 12, 24, 48 mg/kg respectively. The numbers and dosage of flurbiprofen axetil are 1, 2, 3, 4, 5, and 3, 6, 12, 24, 48 respectively also. The medicine and weight ratio is 0.1 ml medicine/10 g weight. Meanwhile, we give the same quantity of saline solution to the contrast group. After 30 minutes, the mixture solution is injected into the vein according to its weight ratio 0.1 ml liquid/10 gram weight for HAc painful.

[4] = stable test of the injection (influence, acceleration, long term); type: physicochemical
Text: The purpose is to investigate the regular change of this product which has the influence of temperature, humidity, and light intensity, and offer producing, packaging, and transporting condition for this medicine. At the same time, the effective date is established by passing this testing. According to the Chinese pharmacopia appendix XI X C, second edition, 2005(the rule of medicine stability testing direction) and “The important stability item-list of bulk drug and pharmaceutical preparation” which is in “The researching directive rule of chemical medicine and therapeutic biological products” determines the important item-list, which includes gender character, PH value, relative materials, asepsis, thermal source, assay, and so on. The testing result is below: […] In other words, the quality of the product is very stable. […] In other words, the quality of the product is very stable. […] In other words, the quality of the product is very stable.

[5] = system: 2% red blood cell's suspending liquid; assay: hemolytic testing outside the body (visual); type: cell-based, rabbit; settings: low concentration 0.63 mg/ml
Experimental: Take 0.5 ml the biphenyl acetic ammonia butantriol salt solution and dilute it with 0.9 % NaCl solution (0.9 g/100 ml) to 6.25 ml.
Take 2 ml the biphenyl acetic ammonia butantriol salt solution and dilute it with 0.9 % NACL (0.9 g/100 ml) solution to 6.0 ml.
Take few milliliters of rabbit blood into a triangular flask and shake it for 10 minutes. Remove the fiber egg white, and get non-fiber blood. Separate the blood solution into few centrifuge tubes. Add ten times of 0.9% NaCl solution, well mixing, and centrifuge (1500 turns/minutes, 15 minutes) to remove the supernatant. Use 0.9% NaCl solution to wash the precipitation red blood two or three times until the supernatant is not red anymore. Use the red blood to mix the 0.9% NaCl solution to make 2% suspending liquid for test use.
Take the same size of opening of 7 clean test tubes and number them. Add the 0.9% NaCl solution, the injection water, medicine, and the 2% suspending liquid followed by Table 9. After well mixing, put them in the temperature chamber at 37° C. Inspect them every 15 minutes. After 1 hour, inspect them every one hour for 3 hours.
If testing solution presents clearly red, no cellular residual under the tube, and few cellular residual, it can determines that haemolysis happens. If red cells all sink, and supernatant fluid presents no color, it can present that haemolysis doesn't happen. […]

[6] = solubility testing; type: physicochemical; settings: for Conclusion (solubility): 25±2° C.
Experimental: According to Chinese medicine book in 2005 edition, the preparation of biphenyl acetic ammonia butantriol salt is made by different solvent. […] At first, mill the biphenyl acetic ammonia butantriol salt into flour and weight it, and add solvent into the biphenyl acetic ammonia butantriol salt. Second, at 25±2° C., wave the mixer solution every 5 minutes for 30 seconds, and inspect the dissolve situation. Repeat three times and the result is illustrated in Table 1.

[7] = system: Kunming mouse; assay: swelling of the mouse ear caused by dimethyl benzene; settings: 3-48 mg/kg
Text: Total numbers of 110 Kunming mice are used, male, 15-17 g, medical inspection for 3 days.
After testing, the mice are divided into eleven groups randomly and each group contains 10 mice. The numbers and dosage of the biphenyl acetic ammonia butantriol slat are 1, 2, 3, 4, 5 and 3, 6, 12, 24, 48, respectively. The numbers and dosage of flurbiprofen axetil are 1, 2, 3, 4, 5, and 3, 6, 12, 24, 48 respectively. Use the dimethybenzene to make the mouse ear swelling, and use the mouse left ear as the contrast group. After 30 minutes, the mixing liquid is injected into the vein according to its weight ratio 0.1 ml liquid/10 gram weight. Use a punch, having the diameter of 8 mm, to punch the same hole in two different ears. Weight it by very high quality scale. Finally, the swelling ratio is: the weight of right ear plus the weight of left ear.

[8] = in vivo; settings: both, NIH, mouse, in vivo
Text: (§1) A total amount of 40 NIH mice, 19-21 gram, (half of the mice are male and half of the mice are female), it is divided into two groups: medicine group and the contrast group. […] The contrast is given by the […] liquid. Investigation and record the poison effect on the mice and the amount of mice death.

[9] = system: NIH mice; assay: in vivo
Text: as §1

[10] = solvent Acetone, 8.9 g in 150 ml
[11] = solvent Acetonitrile, 9.1 g in 150 ml
[12] = solvent Alcohol, 14.3 g in 10 ml
[13] = solvent Formamide, 0.2137 g in 6 ml
[14] = solvent Methanol, 0.1135 g in 3 ml
[15] = both, NIH, mouse, in vivo, 14 days

## CC(=O)O.c1ccc(-c2ccccc2)cc1 [Biphenyl acetate]
[1]
  Number of ulcer animals/Sum of total animals: 13/15

## CC(=O)Oc1ccccc1C(=O)O [Lysine Acetyl-salicylate]
[2]; 1 hour
  pain record on hot plate (55±0.5° C.): 31.08 ± 4.26
[2]; 2 hours
  pain record on hot plate (55±0.5° C.): 30.35 ± 3.29
[2]; 3 hours
  pain record on hot plate (55±0.5° C.): 28.16 ± 2.97

## O=C(O)Cc1ccc(-c2ccccc2)cc1 [biphenyl acetic ammonia butantriol salt]
[3]
  effect towards the mouse twisted caused by glacial acetic acid compared with flurbiprofen axetil injection: no significantly difference
[4]; 25° C., relative humidity 25%, 3 months
  long term test: change of the product: no significantly change
[4]; 40±2° C., relative humidity 75±5%, 3 months
  acceleration test: change of the product: no significantly change
[4]; 60° C., relative humidity 92.5±5%, light intensity 4500±500 lx, 10 days
  influence test: change of the product: no significantly change
[2]; first, second and third hour after giving drugs
  time which mouse is standing on the hot plate compared to the contrast group: significantly extends
[5]
  blood absorbing reaction within 3 hours: no blood absorbing reaction
[6]; [10]
  The dissolving condition: Completely
  Conclusion (solubility): Undissolvable
[6]; [11]
  The dissolving condition: Completely
  Conclusion (solubility): Undissolvable
[6]; [12]
  The dissolving condition: Completely
  Conclusion (solubility): just a few dissolve; also recorded: Slightly
[6]; [13]
  The dissolving condition: Completely
  Conclusion (solubility): Dissolved
[6]; [14]
  The dissolving condition: Completely
  Conclusion (solubility): Dissolved
[6]; solvent Water, 14.1 g in 10 ml
  The dissolving condition: Completely
  Conclusion (solubility): just a few dissolve; also recorded: Slightly
[7]
  effect towards the swelling ear caused by dimethybenzene compared with flurbiprofen axetil: no significantly difference
[8]; LD50
  LD50 at 14 days: > 940 mg/kg
[8]; LD50 of the salt stated as biphenyl phenylacetic acid
  LD50 at 14 days: 589 mg/kg
[9]; 940 mg/kg total for one day, 14 days after injection
  mouse death: no mouse went death
[9]; [15]
  maximum enduring quantity: over 940 mg/kg
  tolerance value: 940 mg/kg
[9]; mouse, in vivo
  poison effect on the mice after injection: barely to move

Source: patent publication US8653298B2, “Biphenyl acetate, preparation and uses thereof” (Shijiazhuang Yiling Pharmaceutical Co., Ltd., priority 2006, dated 2014)
